Data: PMC5711494, “Sterol methyltransferase a target for anti-amoeba therapy: towards transition state analog and suicide substrate drug design” (Journal of Lipid Research, 2017)
Read-outs that look alike come from different tables or passages of the source.

How the values were obtained:
Ac28-SMT = experiment: Substrate kinetics and product analysis with recombinant Ac28-SMT; type: biochemical, Acanthamoeba castellanii; set-up: catalytic competence (kcat/Km) with Ac28-SMT: unit not given here; conditions: for product ratio generated by Ac28-SMT: normalized, saturating substrate, 45 min, 35°C
Method: (§1) The SMT constructs were transformed into competent BL21(DE3) cells and transformants selected against 100 µg/ml ampicillin. Expression of the SMT constructs and partial purification of the recombinant proteins followed the procedure described previously ([19]). […] In one tube, cells were induced by addition of isopropyl thio-galactoside at a final concentration of 1 mM and in the other tube, were un-induced. Cells were harvested 2 and 4 h after induction and an equal number of cells (as calculated by OD @600 nm) from induced (+) and un-induced (−) cultures were boiled with 1X Laemmli’s buffer and analyzed by SDS-PAGE (12%). Gel was stained with Coomassie Brilliant Blue (0.2%) to establish the molecular weight and purity of the expressed protein. Total protein concentrations were determined by Bradford dye-binding procedure with bovine γ-globulin as standard. To determine the catalytic activity of the recombinant proteins, enzyme assays were carried out using soluble bacterial extract (100,000 g fraction) in 9 ml test tubes containing a total of 600 µl assay volume for 45 min (initial velocity conditions). The assay buffer contained 20 mM phosphate buffer in 5% (v/v) glycerol at pH 7.5, sterol acceptor emulsified in 12 µl Tween 80 (1.2 g/l), and the substrate tested over the concentration range 5 to 150 µM against 1.2 mg of total protein. The reaction was initiated by the addition of saturating levels of [methyl-^3H3]SAM, 0.9 µCi, at 150 µM. Incubation mixtures were saponified with methanolic potassium hydroxide and extracted with hexane (3 × 1 ml) and concentrated to dryness providing the nonsaponifiable lipid fraction; radioactivity was determined by liquid scintillation counting. […]

Ac24-SMT = experiment: Substrate kinetics and product analysis with recombinant Ac24-SMT; type: biochemical, Acanthamoeba castellanii; conditions: for product ratio generated by Ac24-SMT: normalized to cycloartenol at ∼70% conversion, saturating substrate, 45 min, 35°C
Method: as §1

TbSMT = system: TbSMT; set-up: method as in PMID 26496686; conditions: cited from earlier work
[1] = system: Acanthamoeba castellanii trophozoites (strain ATCC 30010); experiment: Ac trophozoite growth inhibition and minimum amoebicidal concentration (trypan blue exclusion); type: cell-based; conditions: 48 h incubation
Method: Ac strain ATCC 30010 was inoculated (1 × 10^4 cells/ml) into tissue culture T-25 ml flasks, prepared with ATTC media 712 and cultured axenically in 5 ml medium at 25°C. Continuous cultures populated by trophozoites ([…]; the remaining cells were cysts) was maintained by sub-culturing 4–5 day growth arrested cells (1 × 10^6 cells/ml) into fresh medium. Steroidal inhibitor and azole susceptibility assays were performed in 24-well (4 × 6) microtiter plates (3 ml total). Trophozoite assay conditions and preparation of stock solutions made to 1 μg/10 μl and 1 μg/100 μl in DMSO through serial dilution to achieve final inhibitor concentrations of 64, 32, 16, 8, 4, 2, 1, 0.5, 0.25, 0.125, 0.0625, and 0.03125 µg/ml in 1% DMSO as reported previously for voriconazole incubated with Ac ([25]). Growth curves to evaluate treated trophozoites were initiated with 1 × 10^6 cells/ml and incubated for 48 h. Cell number was calculated with the use of a hemocytometer. The percentage of viable trophozoites following exposure to different concentrations of inhibitors was determined by the standard trypan blue exclusion method. Cells stained blue were considered nonviable. […] The IC50 of inhibitors against trophozoite growth was evaluated using GraphPad Prism with default setting (GraphPad Software Inc., CA).

[2] = system: Acanthamoeba castellanii trophozoites (strain ATCC 30010); set-up: method as in PMID 26014948; conditions: previously reported; read-out: IC50 for Ac growth, previously reported value; cited from earlier work
[3] = system: Acanthamoeba castellanii trophozoites sterol biosynthesis; experiment: Sterol composition of treated Ac trophozoites (GC/MS); type: cell-based; conditions: to 48 h
Method: Amoeba and HEK cells were harvested at one or more points during growth in the presence and absence of steroidal inhibitor and azole at IC50 or MACs of the inhibitor or at 40 µM for HEK cells. Cell pellets were split with an internal standard of known amounts of 5α-cholestane added to one of the cell pellets for determination of sterol amounts in cells. Cells were saponified directly in aqueous methanolic potassium hydroxide at the reflux temperature for 1 h, which yielded total sterol (free plus sterol released from ester bonds). The resulting neutral lipids obtained by dilution with water and extraction with hexane (Fisher) were analyzed by GC/MS or HPLC-equipped with a diode array detector against cholesterol as a chromatographic reference. GC and HPLC retention times of sterols were compared with those obtained from authentic standards in our steroid collection ([18]–[22]). To determine the trophozoite sterol metabolome, GC/MS analysis of cell pellet nonsaponfiables was typically carried out using control cultures incubated in 5 ml medium in 25 ml T-flasks inoculated with 1 × 10^4 trophozoites/ml and cultured for 72 h. To generate significant cell pellets for sterol analysis of treated cells, trophozoites were cultured in 10 ml medium in 25 ml T-flasks inoculated with 1 × 10^5 cells/ml and grown for 48 h.

Compound | product ratio generated by Ac28-SMT (Ac28-SMT) | product ratio generated by Ac24-SMT (Ac24-SMT) | other results
C=C(CC[C@@H](C)[C@H]1CC[C@@]2(C)[C@@H]3CC[C@H]4[C@H](C)[C@@H](O)CC[C@@]45C[C@@]35CC[C@]12C)C(C)C [cycloeucalenol] | 0 | 0 | 
CC(C)=CCCC(C)C1CC[C@@]2(C)C3=C(CCC12C)C1(C)CCC(O)[C@@H](C)C1CC3 (stereo partly drawn) [31-norlanosterol] | 49 | 100 | 
CC(C)=CCC[C@@H](C)[C@H]1CC[C@@]2(C)[C@@H]3CC[C@H]4C(C)(C)[C@@H](O)CC[C@@]45C[C@@]35CC[C@]12C [cycloartenol] | 67 | 100 | Km (Michaelis / binding constant) as substrate of Ac24-SMT (Ac24-SMT; saturating SAM 150 µM, initial velocity conditions): ~44 µM; kcat (turnover rate) as substrate of Ac24-SMT (Ac24-SMT; saturating SAM, initial velocity conditions): about 1.5 min^−1
C=C(CCC(C)C1CCC2C3=C(CCC21C)C1(C)CCC(O)CC1CC3)C(C)C (stereo not drawn) [fecosterol] | 29 | 0 | 
CC(C)=CCCC(C)C1CCC2C3=C(CCC21C)C1(C)CCC(O)CC1CC3 (stereo not drawn) [zymosterol] | 63 | 97 | 
CC(C)=CCC[C@@H](C)[C@H]1CC[C@@]2(C)C3=C(CC[C@]12C)[C@@]1(C)CC[C@H](O)C(C)(C)[C@@H]1CC3 [lanosterol] | 15 | 100 | 
CC(=CCC[C@@H](C)[C@H]1CC[C@H]2C3=CC=C4C[C@@H](O)CC[C@]4(C)[C@H]3CC[C@]12C)CF [26-flourocholesta-5,7,24-trieniol] |  |  | partition ratio against TbSMT (TbSMT): 3
C=C(CCC(C)C1CCC2C3=CCC4CC(O)CCC4(C)C3CCC21C)C(C)C (stereo not drawn) [episterol] | 64 | 0 | 
C[C@@H](c1ncncc1F)[C@](O)(Cn1cncn1)c1ccc(F)cc1F [voriconazole] |  |  | MAC (complete inhibition of growth, minimum amoebicidal concentration) [1]: 3 µM; IC50 ([1]; Acanthamoeba castellanii, ATCC30010, Ac trophozoites): 140 nM; IC50 [2]: 390 nM; accumulation of substrate of the target enzyme in treated trophozoites [3]: ≤ 1 % total
C=C(CCC(C)C1CCC2(C)C3CCC4C(C)(C)C(O)CCC45CC35CCC12C)C(C)C (stereo not drawn) [24(28)-methylenecycloartanol] | 0 | 0 | 
CC(C)=CCCC(C)C1CC[C@@]2(C)C3=C(CCC12C)C1(C)CCC(O)CC1CC3 (stereo partly drawn) [14α-methylzymosterol] | 26 | 97 | 
C=C(CC[C@@H](C)[C@H]1CC[C@@]2(C)C3=C(CC[C@]12C)[C@@]1(C)CC[C@H](O)[C@@H](C)[C@@H]1CC3)C(C)C [obtusifoliol] | 0 | 0 | 
C=C(CCC(C)C1CCC2C3=CCC4C(C)C(O)CCC4(C)C3CCC21C)C(C)C (stereo not drawn) [24(28)-methylenelophenol] | 100 | 0 | Km as substrate of Ac28-SMT (Ac28-SMT; from Lineweaver-Burk plots): ~25 µM; catalytic competence (kcat/Km) with Ac28-SMT (Ac28-SMT; from Lineweaver-Burk plots): ~0.03; kcat as substrate of Ac28-SMT (Ac28-SMT; from Lineweaver-Burk plots): ~0.013 s⁻¹
eburicol | 0 | 0 | 
CC(C)=CCCC(C)C1CCC2C3=CC=C4CC(O)CCC4(C)C3CCC21C (stereo not drawn) [cholesta-5,7,24-trienol] | 50 | 100 | 
